Tests used:
Format in all cases: biochemical
PI3Kα = PI3Kα (Homo sapiens, UniProt P42336); assay: PI3K-alpha fluorescence polarization assay; settings: read-out: PI3Kα Median IC50
PI3Kγ = PI3Kγ (Homo sapiens, UniProt P48736); assay: PI3K-gamma fluorescence polarization assay; settings: read-out: PI3Kγ Median IC50
mTOR = mTOR (Homo sapiens, UniProt P42345); assay: mTOR enzyme assay (DELFIA format, His6-S6K substrate); settings: read-out: mTOR Kinase Median IC50

Sequence of PI3Kα (P42336 whole entry, species assumed): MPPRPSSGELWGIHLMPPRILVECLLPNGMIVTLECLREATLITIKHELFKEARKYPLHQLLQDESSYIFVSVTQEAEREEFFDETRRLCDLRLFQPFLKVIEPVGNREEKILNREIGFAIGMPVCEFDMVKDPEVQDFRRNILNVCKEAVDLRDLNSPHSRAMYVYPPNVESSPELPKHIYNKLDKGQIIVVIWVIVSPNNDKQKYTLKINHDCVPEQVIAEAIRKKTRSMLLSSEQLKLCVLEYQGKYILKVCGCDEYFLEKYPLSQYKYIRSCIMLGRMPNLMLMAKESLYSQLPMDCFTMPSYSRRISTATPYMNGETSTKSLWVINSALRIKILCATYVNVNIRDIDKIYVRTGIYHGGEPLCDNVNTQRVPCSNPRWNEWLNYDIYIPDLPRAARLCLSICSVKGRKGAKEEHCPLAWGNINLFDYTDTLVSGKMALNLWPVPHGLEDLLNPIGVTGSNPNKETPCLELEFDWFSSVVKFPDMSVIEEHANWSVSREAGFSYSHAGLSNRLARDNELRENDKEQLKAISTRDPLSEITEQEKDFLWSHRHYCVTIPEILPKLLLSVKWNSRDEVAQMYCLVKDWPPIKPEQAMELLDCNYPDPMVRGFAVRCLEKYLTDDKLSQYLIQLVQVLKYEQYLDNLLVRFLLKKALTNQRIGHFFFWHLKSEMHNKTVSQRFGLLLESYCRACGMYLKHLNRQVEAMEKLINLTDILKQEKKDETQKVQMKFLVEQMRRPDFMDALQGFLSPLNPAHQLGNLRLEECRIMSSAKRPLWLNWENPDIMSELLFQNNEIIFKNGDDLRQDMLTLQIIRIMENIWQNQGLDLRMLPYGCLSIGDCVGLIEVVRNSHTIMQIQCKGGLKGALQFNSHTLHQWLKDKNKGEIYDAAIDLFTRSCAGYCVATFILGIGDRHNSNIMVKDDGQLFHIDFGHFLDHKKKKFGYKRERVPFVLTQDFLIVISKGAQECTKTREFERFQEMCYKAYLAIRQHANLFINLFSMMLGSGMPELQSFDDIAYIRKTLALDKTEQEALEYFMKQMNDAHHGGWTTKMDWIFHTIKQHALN
Sequence of PI3Kα (P27986 whole entry partner, species assumed): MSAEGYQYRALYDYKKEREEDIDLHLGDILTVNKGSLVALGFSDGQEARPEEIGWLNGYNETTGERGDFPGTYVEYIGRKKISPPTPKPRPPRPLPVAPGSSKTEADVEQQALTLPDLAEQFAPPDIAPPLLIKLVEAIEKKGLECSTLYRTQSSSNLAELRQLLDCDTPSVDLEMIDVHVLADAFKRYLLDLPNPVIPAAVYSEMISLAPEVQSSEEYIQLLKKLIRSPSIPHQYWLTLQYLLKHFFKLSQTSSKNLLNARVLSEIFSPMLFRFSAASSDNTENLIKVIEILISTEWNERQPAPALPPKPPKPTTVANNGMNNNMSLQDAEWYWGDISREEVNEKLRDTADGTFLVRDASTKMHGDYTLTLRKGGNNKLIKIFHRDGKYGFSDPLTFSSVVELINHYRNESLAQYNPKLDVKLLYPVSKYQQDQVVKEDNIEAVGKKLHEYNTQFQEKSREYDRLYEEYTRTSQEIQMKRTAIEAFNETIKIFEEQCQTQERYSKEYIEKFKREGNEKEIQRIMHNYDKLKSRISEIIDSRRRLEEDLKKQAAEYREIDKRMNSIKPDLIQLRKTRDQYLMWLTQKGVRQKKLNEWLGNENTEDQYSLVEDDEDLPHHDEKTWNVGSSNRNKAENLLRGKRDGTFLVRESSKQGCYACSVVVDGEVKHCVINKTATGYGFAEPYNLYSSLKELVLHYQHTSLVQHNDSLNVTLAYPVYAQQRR
Sequence of PI3Kγ (P48736 whole entry, species assumed): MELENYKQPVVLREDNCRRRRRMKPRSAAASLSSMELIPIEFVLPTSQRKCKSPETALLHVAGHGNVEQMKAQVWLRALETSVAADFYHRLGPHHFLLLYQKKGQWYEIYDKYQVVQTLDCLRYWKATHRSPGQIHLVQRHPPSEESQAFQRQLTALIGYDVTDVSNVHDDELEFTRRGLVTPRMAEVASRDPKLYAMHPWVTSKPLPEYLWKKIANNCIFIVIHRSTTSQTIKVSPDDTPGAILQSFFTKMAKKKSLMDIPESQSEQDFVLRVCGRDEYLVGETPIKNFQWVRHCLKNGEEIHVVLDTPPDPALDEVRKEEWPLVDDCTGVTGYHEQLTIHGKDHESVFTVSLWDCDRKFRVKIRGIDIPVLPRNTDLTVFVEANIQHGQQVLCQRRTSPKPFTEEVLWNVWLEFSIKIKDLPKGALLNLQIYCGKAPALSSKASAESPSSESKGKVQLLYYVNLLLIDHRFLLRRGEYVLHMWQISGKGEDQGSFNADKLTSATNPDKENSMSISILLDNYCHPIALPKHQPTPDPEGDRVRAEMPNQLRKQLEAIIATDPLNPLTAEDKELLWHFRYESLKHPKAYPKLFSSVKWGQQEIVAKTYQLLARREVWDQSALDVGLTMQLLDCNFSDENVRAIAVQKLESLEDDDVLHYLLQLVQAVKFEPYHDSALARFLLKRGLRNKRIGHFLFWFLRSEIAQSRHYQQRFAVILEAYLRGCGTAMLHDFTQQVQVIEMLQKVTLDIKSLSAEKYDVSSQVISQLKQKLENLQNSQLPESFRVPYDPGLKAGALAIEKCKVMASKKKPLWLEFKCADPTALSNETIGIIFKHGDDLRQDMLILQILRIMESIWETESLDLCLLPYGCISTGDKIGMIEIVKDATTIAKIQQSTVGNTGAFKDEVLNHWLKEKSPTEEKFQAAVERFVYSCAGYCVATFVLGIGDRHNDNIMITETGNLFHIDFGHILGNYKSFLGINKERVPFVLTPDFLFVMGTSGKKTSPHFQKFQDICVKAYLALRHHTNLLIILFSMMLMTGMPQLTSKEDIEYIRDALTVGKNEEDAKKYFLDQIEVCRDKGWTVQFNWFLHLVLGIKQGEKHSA

Row | Structure (SMILES) | IC50 (PI3Kα) [nM] | IC50 (PI3Kγ) [nM] | IC50 (mTOR) [nM]
1 | Cn1cc(/C=C2\Oc3cccc(O)c3C2=O)c2c(N3CC4CCC(C3)O4)ccnc21 [Compound 55, (2Z)-4-hydroxy-2-{[1-methyl-4-(8-oxa-3-azabicyclo[3.2.1]oct-3-yl)-1H-pyrrolo[2,3-b]pyridin-3-yl]methylene}-1-benzofuran-3(2H)-one] | 104 | 51 | 0.4
2 | Cn1cc(/C=C2\Oc3cc(O)cc(O)c3C2=O)c2c(-c3ccc(C(N)=NO)cc3)ccnc21 [Compound 20, 4-{3-[(Z)-(4,6-dihydroxy-3-oxo-1-benzofuran-2(3H)-ylidene)methyl]-1-methyl-1H-pyrrolo[2,3-b]pyridin-4-yl}-N′-hydroxybenzenecarboximidamide] | 6 | 44 | 0.2
3 | COc1ccccc1-c1ccnc2c1c(/C=C1\Oc3cc(O)cc(O)c3C1=O)cn2C [Compound 14, (2Z)-4,6-dihydroxy-2-{[4-(2-methoxyphenyl)-1-methyl-1H-pyrrolo[2,3-b]pyridin-3-yl]methylene}-1-benzofuran-3(2H)-one] | 188 | 220 | 1.4
4 | Cn1cc(/C=C2\Oc3ccc(NC(=O)Nc4cccnc4)cc3C2=O)c2c(N3CCC(C(=O)N4CCCCC4)CC3)ccnc21 [Compound 258, 1-[(2Z)-2-({1-methyl-4-[4-(piperidin-1-ylcarbonyl)piperidin-1-yl]-1H-pyrrolo[2,3-b]pyridin-3-yl}methylene)-3-oxo-2,3-dihydro-1-benzofuran-5-yl]-3-pyridin-3-ylurea] | 604 | 206 | 47.5
5 | Cn1cc(/C=C2\Oc3ccc(NC(=O)Nc4cccnc4)cc3C2=O)c2c(C(=O)N3CCCCC3)ccnc21 [Compound 234, 1-[(2Z)-2-{[1-methyl-4-(piperidin-1-ylcarbonyl)-1H-pyrrolo[2,3-b]pyridin-3-yl]methylidene}-3-oxo-2,3-dihydro-1-benzofuran-5-yl]-3-pyridin-3-ylurea] | 253 | 2500 | > 4000
6 | Cn1cc(/C=C2\Oc3cccc(O)c3C2=O)c2c(N3CCOCC3)ccnc21 [Compound 48, (2Z)-4-hydroxy-2-[(1-methyl-4-morpholin-4-yl-1H-pyrrolo[2,3-b]pyridin-3-yl)methylene]-1-benzofuran-3(2H)-one] | 53 | 184 | 2.2

Continued by falling IC50 (PI3Kα), values first:

Row | IC50 (PI3Kα) [nM] | IC50 (PI3Kγ) [nM] | IC50 (mTOR) [nM] | Structure (SMILES)
7 | 2690 | 2360 | 66 | CCn1cc(/C=C2\Oc3ccc(NC(=O)Nc4cccnc4)cc3C2=O)c2c(-c3ccc(C(=O)N4CCN(CCO)CC4)cc3)ccnc21 [Compound 177, 1-[(2Z)-2-{[1-ethyl-4-(4-{[4-(2-hydroxyethyl)piperazin-1-yl]carbonyl}phenyl)-1H-pyrrolo[2,3-b]pyridin-3-yl]methylidene}-3-oxo-2,3-dihydro-1-benzofuran-5-yl]-3-pyridin-3-ylurea]
8 | 744 | 1920 | 8.4 | COCCNC(=O)C1CCN(c2ccnc3c2c(/C=C2\Oc4ccc(NC(=O)Nc5cccnc5)cc4C2=O)cn3C)CC1 [Compound 260, N-(2-methoxyethyl)-1-{1-methyl-3-[(Z)-{3-oxo-5-[(pyridin-3-ylcarbamoyl)amino]-1-benzofuran-2(3H)-ylidene}methyl]-1H-pyrrolo[2,3-b]pyridin-4-yl}piperidine-4-carboxamide]
9 | 107 | 829 | 8.1 | Cn1cc(/C=C2\Oc3cccc(O)c3C2=O)c2c(-c3ccc(-c4ccco4)cc3)ccnc21 [Compound 127, (2Z)-2-({4-[4-(2-furyl)phenyl]-1-methyl-1H-pyrrolo[2,3-b]pyridin-3-yl}methylene)-4-hydroxy-1-benzofuran-3(2H)-one]
10 | 43 | 156 | 16.5 | COc1ccc(-c2ccnc3c2c(/C=C2\Oc4cccc(O)c4C2=O)cn3C)cc1S(=O)(=O)N1CCCCC1 [Compound 123, (2Z)-4-hydroxy-2-({4-[4-methoxy-3-(piperidin-1-ylsulfonyl)phenyl]-1-methyl-1H-pyrrolo[2,3-b]pyridin-3-yl}methylene)-1-benzofuran-3(2H)-one]
